Assay results reported in the supplement of paper PMC10307832.

What was measured:
Test in all cases: relative viability (nuclei count vs DMSO), 5 days (fraction); higher = more cells survive
[1] = compound: C1=CC=C2C(=C1)N=C(S2)C(C#N)C3=NC(=NC=C3)NCCC4=CN=CC=C4 + O=C(CCCCCCC(=O)Nc1ccccc1)NO [Vorinostat] (partner 1 µM)
How it was run: (§1)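 Medians of duplicate plates are given as relative viability. That measure is the nuclei count in treated wells divided by the count in vehicle wells. Counts were taken on 4× images of lung cancer cell lines in 1536-well plates, 5 days after pin-tool dosing the day after seeding with one drug alone or a fixed anchor-drug dose plus five library-drug doses (not always all listed) in √10 steps.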

NVP-TAE684 + Dasatinib = compound: COc1cc(N2CCC(N3CCN(C)CC3)CC2)ccc1Nc1ncc(Cl)c(Nc2ccccc2S(=O)(=O)C(C)C)n1 [NVP-TAE684] + Cc1nc(Nc2ncc(C(=O)Nc3c(C)cccc3Cl)s2)cc(N2CCN(CCO)CC2)n1 [Dasatinib] (partner 0.075 µM)
How it was run: as §1

CUDC-101 + Olaparib = compound: C#Cc1cccc(Nc2ncnc3cc(OC)c(OCCCCCCC(=O)NO)cc23)c1 [CUDC-101] + O=C(c1cc(Cc2n[nH]c(=O)c3ccccc23)ccc1F)N1CCN(C(=O)C2CC2)CC1 [Olaparib] (partner 8 µM)
How it was run: as §1

CUDC-101 + Pictilisib = compound: C#Cc1cccc(Nc2ncnc3cc(OC)c(OCCCCCCC(=O)NO)cc23)c1 [CUDC-101] + CS(=O)(=O)N1CCN(Cc2cc3nc(-c4cccc5[nH]ncc45)nc(N4CCOCC4)c3s2)CC1 [Pictilisib] (partner 1 µM)
How it was run: as §1

Cell Line | relative viability ([1]; first compound 0.005 µM) | relative viability ([1]; first compound 0.01581 µM) | relative viability ([1]; first compound 0.05 µM) | relative viability ([1]; first compound 0.1581 µM) | relative viability ([1]; first compound 0.5 µM) | relative viability (NVP-TAE684 + Dasatinib; first compound 0.2 µM) | relative viability (NVP-TAE684 + Dasatinib; first compound 0.6325 µM) | relative viability (NVP-TAE684 + Dasatinib; first compound 2 µM) | relative viability (CUDC-101 + Olaparib; first compound 0.01 µM) | relative viability (CUDC-101 + Olaparib; first compound 0.03162 µM) | relative viability (CUDC-101 + Olaparib; first compound 0.1 µM) | relative viability (CUDC-101 + Olaparib; first compound 0.3162 µM) | relative viability (CUDC-101 + Olaparib; first compound 1 µM) | relative viability (CUDC-101 + Pictilisib; first compound 0.01 µM) | relative viability (CUDC-101 + Pictilisib; first compound 0.03162 µM) | relative viability (CUDC-101 + Pictilisib; first compound 0.1 µM) | relative viability (CUDC-101 + Pictilisib; first compound 0.3162 µM) | relative viability (CUDC-101 + Pictilisib; first compound 1 µM)
NCI-H2126 | 0.637 | 0.75 | 0.701 | 0.855 | 0.647 | 0.568 | 0.39 | 0.375 | 0.875 | 0.919 | 0.905 | 0.968 | 0.787 | 0.501 | 0.545 | 0.432 | 0.446 | 0.315
NCI-H520 | 0.532 | 0.858 | 0.667 | 0.826 | 0.707 | 0.17 | 0.196 | 0.139 | 0.298 | 0.325 | 0.305 | 0.298 | 0.194 | 0.307 | – | 0.305 | 0.251 | 0.214
NCI-H1755 | 0.803 | 0.88 | 0.74 | 0.91 | 0.713 | 0.333 | 0.276 | 0.0732 | 0.873 | 0.933 | 0.904 | 0.853 | 0.753 | 0.406 | 0.409 | 0.444 | 0.41 | 0.264
NCI-H358 | 0.568 | 0.642 | 0.557 | 0.708 | 0.558 | 0.162 | 0.136 | 0.112 | 0.641 | 0.625 | 0.66 | 0.543 | 0.408 | 0.354 | 0.37 | 0.349 | 0.397 | 0.258
NCI-H1650 | 0.472 | 0.597 | 0.535 | 0.676 | 0.439 | 0.378 | 0.19 | 0.137 | 0.926 | 0.667 | 0.744 | 0.867 | 0.578 | 0.57 | 0.552 | 0.559 | 0.446 | 0.293
NCI-H2228 | 0.449 | 0.629 | 0.83 | 0.646 | 0.664 | 0.206 | 0.0665 | 0.0894 | 0.756 | 0.783 | 1.03 | 0.659 | 0.653 | 0.246 | 0.485 | 0.494 | 0.36 | 0.252
NCI-H2347 | 0.578 | 0.524 | 0.551 | 0.72 | 0.558 | 0.501 | 0.307 | 0.293 | 0.677 | 0.681 | 0.626 | 0.686 | 0.479 | 0.711 | 0.658 | 0.794 | 0.436 | 0.569
HCC-15 | 0.959 | 0.971 | 0.816 | 0.851 | 0.775 | 0.542 | 0.435 | 0.28 | 0.684 | 0.726 | 0.652 | 0.665 | 0.499 | 0.683 | 0.774 | 0.713 | 0.79 | 0.569
NCI-H23 | – | 0.504 | 0.529 | 0.804 | 0.627 | – | 0.638 | 0.249 | 0.271 | 0.373 | 0.323 | 0.302 | 0.248 | 0.518 | 0.549 | 0.457 | 0.435 | 0.464
LC-2-ad | 0.621 | 0.704 | 0.676 | 0.823 | 0.612 | 0.293 | – | 0.228 | 0.719 | 0.69 | 0.698 | 0.699 | 0.608 | 0.421 | 0.601 | 0.549 | 0.301 | 0.104
LCLC-97TM1 | 0.608 | 0.694 | 0.724 | 0.725 | 0.624 | 0.894 | 0.792 | 0.275 | 0.452 | 0.4 | 0.368 | 0.446 | 0.437 | 0.276 | 0.283 | 0.192 | 0.226 | 0.144
HOP-62 | 0.49 | 0.626 | 0.453 | 0.685 | 0.642 | 0.444 | 0.509 | 0.201 | 0.31 | 0.465 | 0.359 | 0.29 | 0.477 | 0.758 | 0.696 | 0.753 | 0.582 | 0.4
NCI-H2085 | 0.726 | 0.737 | 0.781 | 0.826 | 0.903 | 0.187 | 0.16 | 0.162 | 0.766 | 0.806 | 0.721 | 0.813 | 0.676 | 0.539 | 0.549 | 0.493 | 0.489 | 0.304
NCI-H2087 | 0.338 | 0.666 | 0.353 | 1 | 0.435 | 0.573 | 0.694 | 0.225 | 0.698 | 0.614 | 0.522 | 0.578 | 0.488 | 0.985 | 1.03 | 1.11 | 1.11 | 0.603
NCI-H1395 | 0.556 | – | 0.707 | 0.788 | 0.611 | 0.408 | 0.387 | 0.317 | 0.472 | 0.558 | 0.447 | 0.435 | 0.405 | 0.59 | 0.682 | 0.564 | 0.652 | 0.581
COR-L 105 | 0.648 | 0.908 | 0.884 | 0.893 | 0.876 | 0.256 | 0.202 | 0.204 | 0.703 | 0.74 | 0.759 | 0.697 | 0.77 | 0.466 | 0.376 | 0.352 | 0.313 | 0.189
CAL-12T | 0.572 | 0.873 | 0.973 | 0.814 | 0.725 | 0.227 | 0.111 | 0.0731 | 0.734 | 0.681 | 0.752 | 0.772 | 0.668 | 0.686 | 0.64 | 0.396 | 0.449 | 0.396
A-427 | 0.9 | 0.86 | 0.811 | 0.902 | 0.887 | 0.789 | 0.703 | 0.554 | 0.711 | 0.671 | 0.722 | 0.694 | 0.607 | 0.804 | 0.656 | 0.655 | 0.698 | 0.614
